Measurements published in US20250177450A1, “METHODS FOR ADMINISTERING FREEZE-DRIED PLATELET DERIVATIVE COMPOSITIONS TO SUBJECTS TREATED WITH A FACTOR XI INHIBITOR” (Cellphire, Inc., priority 2021, published 2025).
Where two headings read alike, the source gives them in different places.

What was measured:
NOD-SCID mice = assay: Tail snip bleeding time in clopidogrel-treated mice; format: in vivo, mouse; settings: clopidogrel 5 mg/kg for 3 days, untreated 758.6+/−623.4
Experimental: Mice were treated with clopidogrel at 5 mg/kg for 3 days. The mice were anesthetized, the tail end was snipped off at 1 mm diameter and submerged in warm saline and time to clot recorded. Animals were syringe injected, into a vein or artery, with saline or 1.6×10^9/kg of FDPDs, at the same time the tail was snipped, and the tail snip trial commenced. The time from tail snip to tail stop bleeding was recorded by visual inspection of cessation of blood loss.

[1] = test system: New Zealand White Rabbits; assay: Ear bleed time in clopidogrel-treated rabbits; format: in vivo, rabbit; settings: clopidogrel 23 mg/kg for 5 days, untreated 87.1+/−18.2
Experimental: Rabbits were treated with clopidogrel at 23 mg/kg for 5 days. The rabbits were anesthetized, the ear was bled and time to clot recorded. Animals were treated, injected into a vein or artery, with saline or 1.6×10^9/kg of human FDPDs, at the same time the ear was bled, and the ear bleed trial commenced. The time from ear bleed to stop bleeding was recorded by visual inspection.

[2] = test system: occlusion of Platelet Rich Plasma (PRP)
Experimental: The T-TAS® instrument was prepared for use according to the manufacturer's instructions. AR Chips (Diapharma Cat. #TC0101) and AR Chip Calcium Corn Trypsin Inhibitor (CaCTI; Diapharma Cat. #TR0101) were warmed to room temperature. […] The sample was loaded and run on the T-TAS® according to the manufacturer's instructions.
The effect of cangrelor and ticagrelor on occlusion time of Platelet Rich Plasma (PRP) with and without FDPDs was assessed using the T-TAS® assay. The concentrations of the agents were as follows: cangrelor at 1 μM, ticagrelor at 500 ng/mL, FDPDs at 150 k/μL, and ADP at 2 μM. […] The number of trials per each assay is listed as the “(n=_)” values.

[3] = test system: thrombus formation in GK PPP; assay: T-TAS AR chip, George King Platelet Poor Plasma with or without GPRP; format: biochemical, human; settings: GK PPP + 1 mM GPRP (No Tsomes)
Experimental: In the Total Thrombus-formation Analysis System (T-TAS®, FUJIMORI KOGYO CO., LTD), the sample is forced through collagen-coated microchannels using mineral oil. Changes in pressure are used to assess thrombus formation. The Occlusion Start Time is time it takes to reach Δ10 kPa, and the Occlusion Time=time it takes to each Δ80 kPa using an AR chip (Zacros Item No, TC0101).
The effect of GPRP (1 mM) on occlusion activity was also assayed.

[4] = test system: time to clot in pooled normal plasma; assay: Activated clotting time (ACT), heparin and protamine in pooled normal plasma; format: biochemical, human; settings: heparin titration
Experimental: This experiment assessed how clinical proportions of Heparin and Protamine affect FDPD function. FDPDs were prepared according to the procedure in Example 18. An Activating Clotting Time (ACT) assay was performed to measure time to clot and TGA was performed to measure thrombin generation. An initial Heparin titration run was performed using ACT to find the minimum Heparin dose needed to reach abnormal clot time.
Activated clotting time was measured using pooled normal plasma with heparin (H) and protamine (P) as labeled on the x-axis; ½ P, P, and 3/2 P represent protamine doses of 4, 8, and 12 μg/ml, respectively. FDPDs, (referred to as “Tsomes” in FIG. 33) were added at 10, 25 or 50 K/μl. […] “K” in the legend stands for 10^3 FDPDS. All samples were run in duplicate. N=2. The experiment was repeated on separate days to improve statistical relevance.

[5] = test system: thrombus formation in whole blood; assay: T-TAS AR chip, rivaroxaban-anticoagulated whole blood; format: cell-based, human; settings: 9 uM dose (a pharmacological dose)
Experimental: Rivaroxaban (sometimes herein called Riv) dose-response in whole blood was measured using T-TASR. An AR chip (Collagen+TF) was used. T-TAS® assays were performed according to Example 3. The donor platelets were used at 307 k/μL.
Thrombosomes were prepared consistent with the procedures described in U.S. Pat. No. 8,486,617 (such as, e.g., Examples 1-5) and U.S. Pat. No. 8,097,403 (such as, e.g., Examples 1-3), and rehydrated by addition of sterile water. T-TAS® assays were run according to Example 3 using 3 μM rivaroxaban and different concentrations of thrombosomes (FIG. 10A, Table 8). The ‘No Riv’ vertical line indicates the approximate occlusion time of a sample with no added rivaroxaban.

[6] = test system: thrombin generation in platelet rich plasma; assay: Thrombin generation assay in dabigatran-treated PRP; format: cell-based, human; settings: dabigatran (100 ng/mL), PRP reagent; 18.89 untreated
Experimental: • (1) Open CAT software; set up instrument; and prepare PRP reagent (including Tissue Factor and some phospholipids), calibrator, and fluoro-buffer according to manufacturer guidelines. • (2) Thaw warfarin or control plasma in 37° C. water bath for 5 minutes. • (3) Rehydrate thrombosomes with cell culture grade water for 10 minutes then dilute with Control Buffer to double target concentration. • (4) For each sample, combine 1:1 volumes of Control Buffer with or without thrombosomes and plasma. • (5) Using a multichannel pipette, add 20 μL of PRP reagent to each well. • (6) Add 80 μL of sample per well.

[7] = cited from earlier work
[8] = ADP (2 μM) stimulated PRP, cangrelor at 1 μM (n=4) or ticagrelor at 500 ng/mL (n=5), PRP alone 19.5±1.5

## COC(=O)[C@H](c1ccccc1Cl)N1CCc2sccc2C1 [clopidogrel]
NOD-SCID mice
  bleed time: 1661 ± 257.9 s
[1]
  bleed time: 206.8 ± 104.2 s

## CSCCNc1nc(SCCC(F)(F)F)nc2c1ncn2[C@@H]1O[C@H](COP(=O)(O)OP(=O)(O)C(Cl)(Cl)P(=O)(O)O)[C@@H](O)[C@H]1O [cangrelor]
[2]; [8]
  occlusion time: 28.0 ± 3.0 min

## GPRP
[3]
  Area Under Curve: 52.43
  Occlusion Speed: 0 kPa/min

## Heparin
[4]
  minimum Heparin dose needed to reach abnormal clot formation: 0.8 U/mL

## O=C(NC[C@H]1CN(c2ccc(N3CCOCC3=O)cc2)C(=O)O1)c1ccc(Cl)s1 [Rivaroxaban]
[5]
  occlusion and thrombus formation: inhibits occlusion but not all thrombus formation

## [H]/N=C(/N)c1ccc(NCc2nc3cc(C(=O)N(CCC(=O)O)c4ccccn4)ccc3n2C)cc1 [dabigatran]
[6]
  Time to peak: 34.67 min

## CC(=O)Oc1ccccc1C(=O)O [aspirin, Acetylsalicylic acid]
[2]; PRP at 30K/μL, aspirin at 500 μM, PRP alone 25:56
  occlusion time: > 30 min
[7]; single 500 mg dose IV
  peak concentration: 500 µM
[7]; single 500 mg dose orally
  peak concentration: 44 µM

## CCCSc1nc(N[C@@H]2C[C@H]2c2ccc(F)c(F)c2)c2nnn([C@@H]3C[C@H](OCCO)[C@@H](O)[C@H]3O)c2n1 [ticagrelor]
[2]; [8]
  occlusion time: 28.0 ± 3.0 min
